Source: patent US8101158B1, “Methods for treating cerebrovascular disease comprising administering an agent that inhibits prokineticin receptor activity” (The Regents of the University of California, priority 2007, dated 2012)
Entries after “also recorded” stand apart in the source; their conditions may differ.

Columns and labels:
PKR2 = target: T1, PKR2 (Homo sapiens, UniProt Q8NFJ6); assay: Antagonism of PK2-induced calcium influx (luminescence) in CHO cells stably expressing PKR2; assay type: cell-based; settings: luminescence (RLU), read-out: inhibition constant (Ki) for blocking activation of PKR2 by PK2
T1 construct: expressed in transfected cells
Description: FIG. 4 is a graphical representation showing the antagonistic effect of Compound I in Chinese Hamster Ovary cells that stably express PKR2. Dose-dependent response of PKR2 activation by PK2 in the presence of different concentrations of Compound I was measured with a luminometer. RLU is an index for calcium influx measurement for this luminescence-based assay. The dose-dependent calcium influx activated by PK2 was antagonized by Compound I. The inhibition constant obtained from this experiment was approximately 15 nM.
(§1) Via custom synthesis, 10 grams of one of the morpholine carboximide derivatives was obtained, with chemical name of (±)-4-Benzyl-N-(3,4-dihydro-2H-1,5-benzodioxepin-7-ylmethyl)-N-isobutylmorpholine-2-carboxamide, compound I (FIG. 5). Compound I was tested using the in vitro ischemia model. […] We utilized compound I as a parent compound to test the potential therapeutic effect of blocking PKR2 in cerebral ischemia models.

[1] = Pharmacokinetic study, brain concentration; assay type: in vivo; settings: intraperitoneal injection of 60 mg/kg in rats
Description: as §1

[2] = tested on: brain infarct in experimental stroke model; assay: Experimental stroke model, infarct volume after i.p. compound I; assay type: in vivo, rats; settings: 50 mg/kg i.p., 30 minutes pre-ischemia; n=5, p<0.05; listed as compound I
Description: TTC staining and infarct quantification was performed as follows. 24 hours after reperfusion, rats were perfused with ice cold PBS and the brain was sectioned into 2 mm thickness. Brain sections were stained in 2,3,5 triphenyl tetrazolium chloride (TTC) solution for 15 minutes or until infarct was visible, followed by fixation with 4% PFA overnight. Next day the brain sections were aligned from rostral to caudal and brain sections were scanned. Infarct size and volume was quantitated using the software Image J. Infarct and cortex was outlined and measured using Image J. Percent infarct represents infarct area over entire cortex area. Percent volume was measured by multiplying the area by the section thickness (2 mm). Compound I reduced infarct size in ischemia models. The effect of compound I in experimental stroke models was tested. […] Compound I-treated rats had smaller infarct at almost every level.

PK2 mRNA [3] = assay: PK2 mRNA in situ hybridization after pilocarpine-induced seizure; assay type: in vivo, mice; settings: CeA; for PK2 mRNA induction after pilocarpine in diazepam-pretreated animals: CA3 and dentate gyrus, diazepam prior to pilocarpine
Description: (§2) All injections were administered through intraperitoneal injections (i.p.) Pilocarpine: to reduce muscarinic peripheral effects, all animals injected with pilocarpine were given 2 mg/kg of methylscopolamine (dissolved in saline 0.4 mg/ml) 30 minutes prior to injection. Pilocarpine-induced seizure was then initiated by injecting littermate mice (C57BL-6 or mix C57BL-6 with CD1) i.p. with (200 or 400 mg/kg) pilocarpine, respectively. Thereafter, animals were then assessed for seizure, as describe above, and sacrificed according to the following time course (30, 1 hr, 3 hrs, 6 hrs, 12 hrs, 36 hrs, 72 hrs). For groups within the pentylenetetrazol (metrazol, PTZ), mice were administered 75 mg/kg PTZ and subsequently monitored for 20 minutes. PTZ kindling were accomplished by administering 45 mg/kg PTZ every other day for 14 days. Animals that reach S5 on the first day were not included in the experiments. Each animal was injected and monitored for S5 seizure. Once S5 is reached, the animal was considered kindled, and was taken out of the injection regimen.
(§3) In situ hybridization was done according to Cheng et al 2001. Antisense and sense riboprobes containing the 3′ UTR of mouse PK2 (GenBank accession number AF487279; residues 1147-2211), PKR1 (3′ UTR) and PKR2 (3′ UTR) were generated. […] Sections were then cut at 20-μm and processed for in situ as described by Winzer-Serhan et al. mRNA distributions from autoradiograms and emulsion-dipped sections were then analyzed and quantified with a system called MCID (Imaging Research). Calibration curve was generated by optical density versus radioactivity (disintegrations per minute (d.p.m.) per mg tissue wet weight) using 14 C standards. […]
A time course analysis for PK2 mRNA induction and upregulation in the pilocarpine-induced seizure model was performed. A total of seven time points (30 minutes, 1 hr, 3 hrs, 6 hrs, 12 hrs, 36 hrs, and 72 hrs post pilocarpine injection) were analyzed. […]

PKR2 mRNA = PKR2 mRNA in situ hybridization after pilocarpine-induced seizure; assay type: in vivo, mice
Description: as §2, with “Animals that reach S5 on the first day were not included in the experiments.” left out, “Once S5 is reached, the animal was considered kindled, and was taken out of the injection regimen.” left out
as §3, with “2001.” for “2001. Antisense and sense riboprobes containing the 3′ UTR of mouse PK2 (GenBank accession number AF487279; residues 1147-2211), PKR1 (3′ UTR) and PKR2 (3′ UTR) were generated.”

PK2 mRNA [4] = assay: PK2 mRNA in situ hybridization in PTZ seizure model; assay type: in vivo, mice; settings: data not shown
Description: as §2, with “Animals that reach S5 on the first day were not included in the experiments.” left out, “Once S5 is reached, the animal was considered kindled, and was taken out of the injection regimen.” left out
as §3, with “2001.” for “2001. Antisense and sense riboprobes containing the 3′ UTR of mouse PK2 (GenBank accession number AF487279; residues 1147-2211), PKR1 (3′ UTR) and PKR2 (3′ UTR) were generated.”

[5] = tested on: brain infarct after distal MCAO; assay: Distal MCAO experimental stroke with ICV delivery of PK2, TTC infarct quantitation; assay type: in vivo, rats; settings: PK2 0.3 nmol ICV within one hour after reperfusion, 24 hr, n=5, p<0.001
Description: Distal Middle Cerebral Artery Occlusion (dMCAO) was performed in the PK2 intracerebroventricular […] infusion study. Anesthesia induced by 5% isoflurane and maintained by 2-3% isoflurane. A ventral midline incision was made, and the two CCAs were isolated. […] were placed around the CCAs, and the animal was placed on its right side. A 2-cm vertical scalp incision was made midway between the left eye and ear. The temporalis muscle was bisected and a 2-mm burr hole was made at the junction of the zygomatic arch and squamous bone to expose the distal MCA. The dura was cut and the distal MCA was permanently electro-cauterized. The CCA were then occluded with clips for 1 hour, and the animals were sacrificed and perfused after 24 hr. PK2 (0.3 nmol) was stereotaxically infused prior or post-ischemia. […] Body temperature, ECG, and respiration rate were monitored every 15 minutes and kept in physiological ranges. […] TTC staining and infarct quantification was performed as follows. […] Infarct size and volume was quantitated using the software Image J. Infarct and cortex was outlined and measured using Image J. Percent infarct represents infarct area over entire cortex area. Percent volume was measured by multiplying the area by the section thickness (2 mm). […] FIGS. 2B and C are graphs showing quantitation of infarct volume. […]

[6] = tested on: GABA (α1β1γ2) currents in oocytes with PKR2; assay: GABA-evoked currents in Xenopus oocytes, two-electrode voltage clamp; assay type: cell-based, Xenopus laevis; settings: GABA 10 uM; PK2 10 nM-30 nM; over 60 min; holding potential -70 mV
Description: FIG. 13 is a series of graphical representations showing PK2-induced reduction of GABA (α1β1γ2) currents. […] GABA (10 uM) evoked GABA currents without PK2 show no appreciable reduction over a 70 min course. Addition of PK2 (10 nM-30 nM) decreased GABA-evoked current over a period of 60 min. FIG. 13B is a graphical representation showing the average percent reduction of normalized GABA-evoked currents after addition of PK2. […] One-way Anova with post-Dunnet correction indicates (p<0.05) across all time points when compared to normalized base.
Multiple studies have found a complex system of inhibition, disinhibition, and various physiological consequences, depending on the circuitry and subtypes involved; all of which have important consequences in epileptogenesis. The role of PK2 and GABAA receptor, especially with the αβγ-GABAA which are found in the amygdale was investigated. […]. To do this study, a mixture of RNA containing α1β1γ2S with or without PKR2 was injected into Xenopus oocytes. GABA currents were then measured using the two-electrode voltage clamp with a holding potential of −70 mV, 4-6 days post injection. Repeated exposure (every 10 mins) with GABA (10 μM) to Xenopus oocytes (αβγ-GABAA or […] containing) induced a reproducible and stable current over a long-term recording (>1 hr).

[7] = tested on: locomotor running wheel activity; settings: PK2 0.3 nmol; cited from earlier work

T1 sequence (Q8NFJ6 whole entry): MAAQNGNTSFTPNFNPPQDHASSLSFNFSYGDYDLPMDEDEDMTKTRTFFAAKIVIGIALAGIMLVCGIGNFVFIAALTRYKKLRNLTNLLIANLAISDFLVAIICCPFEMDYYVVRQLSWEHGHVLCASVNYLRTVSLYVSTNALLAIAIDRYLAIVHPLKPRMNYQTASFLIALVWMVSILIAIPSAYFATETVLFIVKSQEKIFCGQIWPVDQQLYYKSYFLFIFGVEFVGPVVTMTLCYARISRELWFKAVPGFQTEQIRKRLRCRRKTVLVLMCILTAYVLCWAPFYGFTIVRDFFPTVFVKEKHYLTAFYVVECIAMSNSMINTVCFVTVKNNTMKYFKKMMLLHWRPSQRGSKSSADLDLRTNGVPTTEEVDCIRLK

With `CC(C)CN(Cc1ccc2c(c1)OCCCO2)C(=O)C1CN(Cc2ccccc2)CCO1` (racemic) [Compound I, (±)-4-Benzyl-N-(3,4-dihydro-2H-1,5-benzodioxepin-7-ylmethyl)-N-isobutylmorpholine-2-carboxamide] the Ki (PKR2) was about 15 nM, the brain concentration [1] was “significant brain concentration” and the “infarct volume versus vehicle PEG400” value [2] was “significantly reduced infarct volume”.

With `CN1C(=O)CN=C(c2ccccc2)c2cc(Cl)ccc21` [Diazepam, diazepam] the “PK2 mRNA induction after pilocarpine in diazepam-pretreated animals” value (PK2 mRNA [3]) was “eliminated induction; also recorded: blocks induction of PK2”, the “PK2 mRNA induction after pilocarpine in diazepam-pretreated animals” value (PK2 mRNA [3]; listed as diazepam) was “completely abolished” and the “PKR2 mRNA induction after pilocarpine with diazepam” value (PKR2 mRNA; seizure activity blocked with diazepam) was “eliminated induction”.

With `C1CCc2nnnn2CC1` [PTZ, Pentylenetetrazol] the “PK2 mRNA induction in PTZ seizure model” value (PK2 mRNA [4]) was “only a modest upregulation of PK2 mRNA at the medial nucleus of the amygdale”.

In the case of `CC[C@@H]1C(=O)OC[C@@H]1Cc1cncn1C` [pilocarpine], the “peak PK2 mRNA induction over basal level” value (PK2 mRNA [3]; 6 hr post pilocarpine injection) is reported as “over 100 fold” and the “peak PKR2 mRNA induction over basal level” value (PKR2 mRNA; CA1/CA2, 6 hr post pilocarpine injection) is reported as “about 7 fold”.

B1: PK2: secreted peptide ligand of G-protein coupled receptors PKR1 and PKR2 (protein, UniProt Q9HC23 28-129, looked up)
Prokineticin-2: AVITGACDKDSQCGGGMCCAVSIWVKSIRICTPMGKLGDSCHPLTRKNNFGNGRQERRKRKRSKRKKEVPFFGRRMHHTCPCLPGLACLRTSFNRFICLAQK
For B1, the “infarct volume versus saline” value [5] is listed as “significantly increased overall average infarct volume”, the “maximum inhibition of GABA-evoked currents” value [6] is listed as 75 % of normalized baseline and the “duration of inhibitory response in locomotor running wheel activity” value [7] is listed as 3 to 5 h.
